One compound from patent US20240174631A1, “COMPOUNDS, COMPOSITIONS, AND METHODS FOR MODULATING FGF ACTIVITY” (Recovery Therapeutics, Inc., priority 2021, published 2024) can be followed below.

The target in one test is T1, FGF2 (Homo sapiens, UniProt P09038).
T1 construct: made in house; host or cells: Escherichia coli BL21 (DE3) Star
Description: Thermal shift assay (TSA) of FGFR1/FGF2 complex, FGF2 melting peak. The test is classed as binding. The text has this: (§1) TSA was utilized to biophysically characterize the recombinant human FGFR1/FGF2 complex in the presence or absence of compounds. The assay functions by protein denaturation over a temperature gradient. During protein unfolding, exposed hydrophobic regions bind a dye and fluoresce due to solvent relaxation effects. Changes in the melting temperature of the protein complex in the presence of each compound were monitored and compounds were screened/ranked using this method.
One Shot BL21 (DE3) Star Escherichia coli competent cells (Thermo Fisher) were transformed with a relevant FGF2 plasmid and inoculated onto Ampicillin Luria Broth/Agar plates. Two hundred milliliter portions of Terrific Broth starter cultures were used to inoculate 9 L cultures with ampicillin at a concentration of 100 μg/mL. Cultures were grown to an O.D.600 near 1.0 at 37° C., and induced with IPTG overnight at 18° C. The cells were harvested at 7000 RPM in rotor 6000 for 5 min at 4° C. and stored at −80° C. Bacterial pellets were resuspended in 25 mM Hepes-NaOH, pH 7.5, 250 mM NaCl, and the cells were lysed in 3 cycles on/off for 3 minutes each at 4° C. via sonication. After centrifugation for 30 minutes at 16,000 RPM at 4° C., the isolated pellets were discarded, and the supernatant was filtered supernatant through a […] PES filter using 100 mL superloop. The lysate was purified over a 5 mL S column by washing the column with Lysis buffer for 5 CV then eluting using gradient from 250 mM to 1 M NaCl over 20 CV. The fractions containing FGF2 were identified via SDS-PAGE gel (Expected Mw: 15.2 KDa). The protein was collected and diluted in 20 mM Tris-HCl pH 8.0, 25 mM MgCl2 buffer in order to reach a NaCl concentration of 150 mM. The purified FGF2 was concentrated and stored at −80° C.
(§2) Thawed aliquots of purified FGF2 (1.0 mg/mL) and FGFR1 (1.6 mg/mL) proteins were mixed in a 1:1 molar ratio (64 μM: 64 μM) on ice for 30 min at 4° C. and plated prior to the thermal shift assay (TSA). Complex formation was verified by loading the complexed material on a size exclusion column (superdex 300GL S200) and observing the monodisperse peak corresponding to the FGF2/FGFR1 complex (˜40 kDa). Compounds of the invention were screened in dose response format (0-100 μM) with the FGF2/FGFR1 complex in triplicates. FGF2/FGFR1/compound complexes were mixed in a 1000:1 ratio with Sypro Orange dye (Sigma-Aldrich). The samples were processed using a Bio-Rad CFX C96 Touch quantitative polymerase chain reaction and run using the FRET assay settings with a heating ramp of 0.3° C./s cycling from 4 to 100° C. Data analysis was performed using the Bio-Rad CFX Manager Software (version 3.1, Bio-Rad) and changes in the melting temperature (Tm) of the complex in the presence of each compound were monitored. The results are shown in Tables 2 and 3 below and also in FIG. 1 (for Compound 2).

For another test, the target named is FGFR1 (Homo sapiens, UniProt P11362). Description: Thermal shift assay (TSA) of FGFR1/FGF2 complex, FGFR1 melting peak. On the set-up: made in house; host or cells: Escherichia coli BL21 (DE3) Star. The test is classed as binding.
Chain of FGFR1 (P11362 142-365 limits assumed): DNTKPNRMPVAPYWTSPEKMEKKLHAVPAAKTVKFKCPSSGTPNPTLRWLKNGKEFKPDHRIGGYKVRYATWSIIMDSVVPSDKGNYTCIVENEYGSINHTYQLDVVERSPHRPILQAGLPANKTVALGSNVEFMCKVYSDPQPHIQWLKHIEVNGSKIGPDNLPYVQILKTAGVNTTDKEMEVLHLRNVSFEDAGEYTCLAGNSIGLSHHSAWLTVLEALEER
Chain of FGFR1 (P09038 156-288 partner limits assumed): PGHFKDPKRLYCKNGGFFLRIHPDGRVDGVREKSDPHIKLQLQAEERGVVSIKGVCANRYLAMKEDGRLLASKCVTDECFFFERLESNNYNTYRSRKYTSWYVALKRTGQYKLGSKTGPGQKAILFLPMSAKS
Source text: as §1
Cell pellets were thawed and resuspend in 100 mL of FGFR1 Lysis Buffer per 9 g of pellet (20 mM Tris-HCl pH 8.0, 500 mM NaCl, 1 mM dithiothreitol) by stirring at 4° C. for 1 hour. Cells were lysed in 3 cycles on/off for 3 minutes each at 4° C. via sonication followed by centrifugation for 30 minutes at 16,000 RPM in rotor F20 at 4° C., after which the supernatant was discarded. This process was then repeated twice. The pellets were resuspended in 150 mL FGFR1 solubilization buffer (8 M urea, 20 mM Tris-HCL pH 8.0, 150 mM NaCl, 1 mM dithiothreitol) by stirring for 1 hour at 4° C., and the solution was subjected to centrifugation for 30 minutes at 16,000 RPM in rotor F20 at 4° C. The pellets were discarded, and the supernatant was filtered through a […] polyethersylfone (PES) filter. After filtration, the supernatant was added dropwise to 1 L FGFR1 refolding buffer (20 mM Tris-HCl pH 8.0, 150 mM NaCl, 0.5 M L-arginine, 25 mM MgCl2) using a glass column. Protein was concentrated by tangential flow from 1 L to 100 mL and dialyzed against 1 L of FGFR1 Dialysis Buffer (20 mM Tris-HCl pH 8.0, 150 mM NaCl, 25 mM MgCl2) for 2 hours at 4° C., and the dialysis step was repeated with fresh buffer for an additional 2 hours at 4° C. The material thus obtained was then centrifuged at 4000 RPM in Eppendorf tabletop centrifuge for 5 minutes and loaded onto 2×5 mL heparin columns. The columns were washed extensively (20 CV) using FGFR1 Heparin Buffer A (20 mM Tris-HCl pH 8.0, 150 mM NaCl, 25 mM MgCl2) and then eluted using FGFR1 Heparin Buffer B (20 mM Tris-HCl pH 8.0, 1.5 M NaCl, 25 mM MgCl2). A large peak was recovered that was >95% pure by SDS-PAGE analysis gel (Expected Mw: 25 KDa). The protein was collected and diluted in 20 mM Tris-HCl pH 8.0, 25 mM MgCl2 buffer in order to reach a NaCl concentration of 150 mM. The FGFR1 thus obtained was concentrated and stored at −80° C.
as §2

T1 sequence (P09038 156-288 limits assumed): as the sequence (P09038 156-288 partner limits assumed) above
T1 sequence (P11362 142-365 partner limits assumed): as the sequence (P11362 142-365 limits assumed) above

`CCN(CC)c1ccc2c(c1)CCN(C1CCN(C(c3ccccc3)c3ccccc3)CC1)C2` [Compound 2, 2-(1-benzhydrylpiperidin-4-yl)-N,N-diethyl-1,2,3,4-tetrahydroisoquinolin-6-amine]: the shift in melting temperature (ΔTm) at 2 µM on FGF2 (2 μM compound) is -2.5 °C; on FGFR1 (2 μM compound, FGF2/FGFR1 complex), 4 °C. Moreover, the ΔTm at 10 µM at FGF2 (10 μM compound) is -3 °C; on FGFR1 (10 μM compound, FGF2/FGFR1 complex), 4.5 °C. Also, the “shift of the melting curve of the FGF-2/FGFR1 complex (TSA)” value at FGFR1 (10 μM, purified FGF-2/FGFR1 complex, FIG. 1) is “increased stability of the complex”.
